Laboratory results taken from patent US5149793A, “Exo-3',4'-O-benzylidene-3"-demethylchartreusin and its salts” (Ishihara Sangyo Kaisha, Ltd., priority 1989, dated 1992).
Values after ≈ are worked out from the molar mass of the structure shown. Where two headings read alike, the source gives them in different places.

Experiments:
[1] = tested on: B-16 melanoma cells; experiment: Antitumorous activity: growth inhibition of B-16 melanoma cells (Test Example 1); format: cell-based, mice; conditions: Mus musculus, B16, 1 hour drug exposure at 37° C., then 48 hours incubation
Description: B-16 melanoma cells were suspended in RPMI 1640 medium containing 5% fetal bovine serum in a concentration of 4×10^4 cells/ml. The resulting suspension was placed in the 12 wells (1 ml/well) of a plate-cum-wells, wherein preliminary incubation was then carried out for 24 hours. A test drug was dissolved in a mixture of dimethyl sulfoxide and a culture medium of 5% serum - RPMI 1640 (1:3 in volume ratio). Thus, drug solutions having various respective drug concentrations were prepared. 20 μl each of these drug solutions were respectively added to the wells of the plate. The resulting drug-added suspensions were subjected to incubation at 37° C. for 1 hour. Subsequently, the incubated medium were removed from the respective wells, which were then washed once with the same culture medium as mentioned above. Thereafter, the same culture medium as mentioned above was freshly placed in each of the wells of the plate, followed by incubation at 37° C. for 48 hours.
The number of cells in each well was counted according to a customary method using a Coulter counter.
The values of growth control rate in the members of each drug-treated group, which members corresponding to the respective wells of the plate were culture broths respectively treated with drug solutions having various respective drug concentrations, were calculated by comparison with the growth rate of the drug-untreated group. The inhibitory concentration of each test drug in which the growth control rate was 50% (IC50) was calculated from the above-calculated values of growth control rate.

[2] = tested on: Bacillus megaterium IFO 12108; experiment: Antibacterial activity, agar dilution method (Test Example 2); format: cell-based; conditions: Priestia megaterium, IFO12108
Excerpt: (§1) The minimum inhibitory concentrations (MIC) of exo-BDMC against growth of various microorganisms were examined according to an agar dilution method.

[3] = tested on: Bacillus subtilis PCI 219; experiment: as above; format: cell-based; conditions: PCI219
Excerpt: as §1

[4] = tested on: Flavobacterium meningosepticum IFO 12535; experiment: as above; format: cell-based; conditions: Elizabethkingia meningoseptica, IFO12535
Excerpt: as §1

[5] = tested on: Staphylococcus aureus 209P; experiment: as above; format: cell-based
Excerpt: as §1

[6] = tested on: cells of experimental tumors of mice and the like, such as P-388 leukemia, L-1210 leukemia, B-16 melanoma, M-5076 sarcoma, Colon 26, and Lewis lung carcinoma; experiment: Activity against cells of experimental tumors (general statement); format: cell-based; conditions: exo-BDMC or its salts; result in words
[7] = tested on: Gram-positive bacteria or Gram-negative bacteria; experiment: Growth inhibition of bacteria (general statement); format: cell-based; conditions: exo-BDMC or its salts; result in words
[8] = Antitumorous activity (general statement); conditions: result in words
[9] = Antibacterial activity (general statement); conditions: result in words
[10] = set-up: species or system mice; conditions: mouse, in vivo
Description: Exo-6-O-(N-trifluoroacetyl-β-aminoisobutyryl)-3',4'-O-benzylidenechartreusin was intravenously injected in a dose of 40 mg/kg into 160 DDY mice. 300 g of feces excreted within 24 hours after the intravenous injection were collected and ground down in a mortar. 1 liter of a mixed solvent (methanol:chloroform=1:1 in volume ratio) was added to the ground-down feces. The resulting mixture was stirred at 60° C. for 30 minutes to effect extraction, followed by separation of insolubles by filtration. The separated insolubles were admixed with 700 ml of the same mixed solvent as mentioned above to effect extraction again. The two resulting extracts were put together and concentrated under reduced pressure to obtain 9 g of crude exo-BDMC. The crude exo-BDMC was subjected to a purification operation by silica gel column chromatography (developing solvent: chloroform+methanol). The above-mentioned purification operation was repeated. An exo-BDMC-containing fraction obtained by the foregoing purification procedure was concentrated and then recrystallized from a mixed solvent (chloroform:methanol:ethyl acetate=2:1:1 in volume ratio) to obtain 50 mg of exo-BDMC. […]

[11] = result in words; already known; cited from earlier work
[12] = result in words; already known; cited from earlier work; remark: listed apart in the source

Compound | IC50 [1] | MIC [2] | MIC [3] | MIC [4] | MIC [5] | activities against cells of experimental tumors [6] | capacity of inhibiting growth of bacteria [7] | antitumorous activity [8] | antibacterial activity [9] | presence in the excreta of mice (metabolite of exo-3',4'-O-benzylidenechartreusin derivatives) [10] | antitumorous activity [11] | antibacterial activity [12]
Cc1ccc2oc(=O)c3c(O)c4cccc(O[C@@H]5O[C@H](C)[C@@H]6OC(c7ccccc7)O[C@@H]6[C@H]5O[C@H]5O[C@H](C)[C@H](O)[C@H](O)[C@H]5O)c4c4oc(=O)c1c2c34 (stereo partly drawn) [exo-BDMC, exo-3',4'-O-benzylidene-3"-demethylchartreusin] | 0.9 µg/mL (≈ 1.26 µM) | 1.56 µg/mL (≈ 2.18 µM) | 1.56 µg/mL (≈ 2.18 µM) | 1.56 µg/mL (≈ 2.18 µM) | 3.13 µg/mL (≈ 4.38 µM) | exhibit activities against cells of experimental tumors | strongly inhibiting growth of either Gram-positive bacteria or Gram-negative bacteria | has antitumorous and antibacterial activities | has antitumorous and antibacterial activities | exists in the excreta of mice |  | 
Cc1ccc2oc(=O)c3c(O)c4cccc(O[C@@H]5O[C@H](C)[C@H](O)[C@H](O)[C@H]5O[C@H]5O[C@H](C)[C@H](O)[C@H](O)[C@H]5O)c4c4oc(=O)c1c2c34 [3"-DMC, 3"-demethylchartreusin] | 11 µg/mL (≈ 17.6 µM) |  |  |  |  |  |  | has antitumorous and antibacterial activities | has antitumorous and antibacterial activities |  |  | 
CO[C@H]1[C@@H](O)[C@@H](C)O[C@H](O[C@H]2[C@H](Oc3cccc4c(O)c5c(=O)oc6ccc(C)c7c(=O)oc(c34)c5c67)O[C@H](C)[C@@H]3OC(c4ccccc4)O[C@@H]32)[C@@H]1O (stereo partly drawn) [exo-BC, Exo-3',4'-O-benzylidenechartreusin, reference compound] | 2.1 µg/mL (≈ 2.88 µM) |  |  |  |  |  |  |  |  |  |  | 
CO[C@H]1[C@@H](O)[C@@H](C)O[C@H](O[C@H]2[C@H](Oc3cccc4c(O)c5c(=O)oc6ccc(C)c7c(=O)oc(c34)c5c67)O[C@H](C)[C@H](O)[C@@H]2O)[C@@H]1O [chartreusin] | 9.2 µg/mL (≈ 14.4 µM) |  |  |  |  |  |  |  |  |  | has antibacterial and antitumorous activities | has antibacterial and antitumorous activities
